Measured values published in patent publication US8173658B2 (priority 2005, dated 2012).
Structures can show the parent of a compound that is named as a salt.

Tests used:
[1] = molecular target: α7-subtype of nicotinic receptors (Rattus norvegicus, UniProt Q05941); experiment: biochemical; format: binding
Chain of α7-subtype of nicotinic receptors (Q05941 23-502): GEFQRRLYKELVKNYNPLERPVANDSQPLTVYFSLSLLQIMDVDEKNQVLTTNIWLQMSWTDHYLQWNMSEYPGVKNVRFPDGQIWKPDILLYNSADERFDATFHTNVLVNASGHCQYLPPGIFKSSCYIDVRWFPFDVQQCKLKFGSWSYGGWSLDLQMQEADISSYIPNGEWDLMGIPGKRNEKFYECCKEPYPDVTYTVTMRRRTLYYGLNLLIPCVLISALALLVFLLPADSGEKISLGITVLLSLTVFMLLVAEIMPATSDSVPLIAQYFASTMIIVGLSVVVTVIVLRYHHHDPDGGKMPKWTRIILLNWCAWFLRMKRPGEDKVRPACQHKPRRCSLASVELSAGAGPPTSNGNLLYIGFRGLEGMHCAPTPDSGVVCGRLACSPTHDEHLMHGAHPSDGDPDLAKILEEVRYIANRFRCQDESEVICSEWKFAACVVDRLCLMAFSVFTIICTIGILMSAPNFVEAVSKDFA

CN1C2CCCC1CN(c1ccc(-c3ccccc3)nn1)C2 (as salt: fumaric acid salt) [Compound A1, 9-Methyl-3-(6-phenyl-pyridazin-3-yl)-3,9-diaza-bicyclo[3.3.1]nonane]
melting point: 187 to 188 °C

CN1C2CCCC1CN(c1ccc(-c3ccccc3)nn1)C2 [Compound A1, 9-Methyl-3-(6-phenyl-pyridazin-3-yl)-3,9-diaza-bicyclo[3.3.1]nonane]
IC50 [1]: < 1 µM

CN1C2CCCC1CN(c1ccc(-c3ccsc3)nn1)C2 [Compound C1]
IC50 [1]: < 1 µM

CCN1C2CCCC1CN(c1ccc(-c3ccccc3)nn1)C2 [Compound D1, 9-Ethyl-3-(6-phenyl-pyridazin-3-yl)-3,9-diaza-bicyclo[3.3.1]nonane]
IC50 [1]: < 1 µM
